Source: paper PMC9227536, “Prediction of Pharmacokinetics of IDP-73152 in Humans Using Physiologically-Based Pharmacokinetics” (Pharmaceutics, 2022)

How the values were obtained:
[1] = Stability in plasma, mouse; assay type: in vitro ADME; settings: mice plasma
Method: (§1) The unbound fractions of IDP-73152 in various matrices were measured according to the manufacturer's instructions for the rapid equilibrium dialysis (RED) device (ThermoFisher Scientific, Waltham, MA, USA). Briefly, IDP-73152 was added to the plasma or the microsomal/hepatocyte incubation buffer from various species (i.e., mouse, rat, dog, and human for microsomal incubation; rat for hepatocyte incubation) to obtain final concentrations of the compound at 0.3, 1, and 3 μM. After the membrane insert was placed in the RED plate, the solution containing IDP-73152 was added (400 μL) to the sample chamber, and the dialysis buffer (600 μL) was added to the buffer chamber. The RED plate was sealed with parafilm and then incubated at 37 °C in the orbital shaker (Lab Companion, Daejeon, Korea) at 100 rpm for 5 h. […] The IDP-73152 concentration in the buffer/sample chambers (i.e., CBuffer Chamber and CSample Chamber) was determined by an assay. Thus, the fraction unbound was defined as:(2) % Fraction unbound=(CBuffer Chamber/CSample Chamber)×100% When necessary, the stability of IDP-73152 in the matrix was also determined at 5 h. […] Accordingly, the kinetics of IDP-73152 instability were determined in the rat blood at a final concentration of 0.3 μM. […]

[2] = Stability in plasma, human; assay type: in vitro ADME; settings: humans plasma
Method: as §1

[3] = PBPK model prediction, humans
Text: In this study, the PBPK model involving ten tissues (i.e., adipose tissue, brain, heart, kidney, liver, lung, muscle, skin, spleen, and testis (Figure 2; see Appendix A for detailed mathematical descriptions)) was considered to be applicable for the description of IDP-73152 PK in rats, mice, dogs, and humans. Physiological variables were obtained from the literature; they are summarized in Supplementary Table S1.
For the estimation of the volume of the distribution of IDP-73512 in rats, the steady-state volume of distribution (Vss) was calculated using the following equation [30]:(10) Vss=VP+Vrbc×EP+∑VT,i×KP,ss,i, where Vp, Vrbc, and VT,i are the volumes of plasma, red blood cells, and tissues, respectively. The erythrocyte-to-plasma partition coefficient (EP), is calculated by EP=1+(BP−1)/Hematocrit . The KP,ss for each tissue obtained from Equation (8) was applied for Equation (10). For the case of non-eliminating organs, the KP,ss was regarded as the tissue-to-plasma partition coefficient (KP) in PBPK equations (Appendix A). For the case of the liver—i.e., the eliminating organ—the KP,ss (KP,ss,LI) had to be corrected to account for the equilibrium being altered by the elimination. Thus, a PBPK-operative KP for liver (KP,LI) was calculated using the following equation [31]:(11) KP,LI=KP,ss,LI/(1−ER), where ER is the hepatic extraction ratio of the compound (i.e., CLh/(QLI·BP)). In this study, a compartmental absorption and transit (CAT) model consisting of stomach and five intestinal segments was considered for the description of the intestinal absorption kinetics of IDP-73152 in animals and humans. We assumed that the initial compartment denoted the stomach (Equation (12)), and the subsequent three compartments represented the small intestine and two additional compartments for the large intestine (i.e., a total of six compartments, with absorption occurring in the five intestinal compartments) (Equation (13)). The differential equations describing the rate of drug absorption and transit in the gastrointestinal tract can be written as:
For the intestine, viz. i = 1~5:(13) dMi/dt=Kt,i−1×Mi−1−(Kt,i+ka,i)×Mi, where Ms is the amount of drug in the stomach; Mi is the amount of drug in the i-th intestinal segment; Ks, Kt,i, and ka,i are the rate constants of gastric emptying, intestinal transit, and the segmental absorption rate, respectively. […] The absorption rate constant in the intestinal segments in humans, ka,i,human, was assumed to be identical along the segments and calculated as follows: first, Peff was empirically estimated from the Caco-2 cell permeability (Papp):(14) LogPeff=0.4926×LogPapp−0.1454
Then, ka,i,human for the intestinal segments i = 1~5 was calculated by (15) ka,1~5,human=2×Peff/R […]

hepatic CYP3A = assay: Preliminary studies of metabolic pathway; assay type: in vitro ADME
[4] = system: methicilin-resistant Staphylococus aureus; settings: infected mice, twice-a-day dosing; cited from earlier work

CC(C)(C)[C@H](NC(=O)[C@H](CC1CCCC1)CN(O)C=O)C(=O)N1CCC(NCc2cc(F)c(F)cc2F)CC1 [IDP-73152]
percentage remaining in plasma at 5 h ([1]; 5 h, 37 °C): 92.3 ± 2.7% | stability in plasma ([1]; preliminary study): stable | percentage remaining in plasma at 5 h ([2]; 5 h, 37 °C): 98.2 ± 3.4% | stability in plasma ([2]; preliminary study): stable | AUC ratio ([3]; oral 640 mg): 1.00 | Cmax ratio ([3]; oral 640 mg): 0.498 | AUC ratio ([3]; oral 1280 mg): 1.12 | Cmax ratio ([3]; oral 1280 mg): 0.671 | primary metabolic pathway (hepatic CYP3A): mediated by hepatic CYP3A | ED50 (oral dose at which the survival rate was 50%) [4]: 16.6 mg/kg
